Here are results for four compounds from ChEMBL document CHEMBL1201862, “PubChem BioAssay data set” (2004).

Each structure is given as a SMILES string. Activity calls are given as the source filed them.

Test [1] in a line: P. falciparum late gametocyte killing, dose response, luminescence (AID 1117278).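 Note: gametocytes exposed to compound for 24 hours.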 The format is functional, cell-based.
Test [2] can be described thus: Jurkat T cell cytotoxicity, dose response, cytotoxicity control for P. falciparum gametocyte viability project, luminescence (AID 1117277).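 Note: potency reflects loss of cellular ATP meaning fewer viable cells.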 The format is functional, cell-based.
For test [3], the target named is G-protein coupled receptor 35 (Homo sapiens, UniProt Q9HC97). Briefly: SAR Analysis for the identification of Selective Antagonists of ERK1/2 Activity in GPR35-Overexpressing U2OS Cells. [Related pubchem assays: 2079, 2058 ]. The format is functional, cell-based.
A further test addresses T1, Protein RecA (Mycobacterium tuberculosis, UniProt P9WHJ3).
T1 sequence (P9WHJ3 whole entry): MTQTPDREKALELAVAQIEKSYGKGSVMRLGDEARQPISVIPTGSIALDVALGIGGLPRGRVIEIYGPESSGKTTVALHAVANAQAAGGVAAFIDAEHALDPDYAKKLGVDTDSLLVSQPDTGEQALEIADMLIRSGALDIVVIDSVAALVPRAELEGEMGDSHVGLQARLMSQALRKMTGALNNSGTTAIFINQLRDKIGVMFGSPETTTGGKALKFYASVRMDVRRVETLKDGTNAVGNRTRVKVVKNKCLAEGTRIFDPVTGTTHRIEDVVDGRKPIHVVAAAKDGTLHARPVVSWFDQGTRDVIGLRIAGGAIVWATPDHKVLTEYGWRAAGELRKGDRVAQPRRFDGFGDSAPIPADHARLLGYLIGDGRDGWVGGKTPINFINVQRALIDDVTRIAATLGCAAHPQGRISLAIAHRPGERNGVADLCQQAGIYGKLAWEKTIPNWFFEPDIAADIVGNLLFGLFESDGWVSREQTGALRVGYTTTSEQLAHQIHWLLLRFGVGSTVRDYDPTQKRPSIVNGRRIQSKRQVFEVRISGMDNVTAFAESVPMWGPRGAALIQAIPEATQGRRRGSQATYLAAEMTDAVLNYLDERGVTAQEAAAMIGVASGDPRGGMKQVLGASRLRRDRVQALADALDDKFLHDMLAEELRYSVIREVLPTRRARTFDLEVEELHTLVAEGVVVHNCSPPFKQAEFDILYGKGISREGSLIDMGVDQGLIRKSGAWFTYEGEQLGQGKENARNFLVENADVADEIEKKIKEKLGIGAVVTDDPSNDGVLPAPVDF
The test can be described thus: Fluorescence Cell-Free Homogeneous Dose Retest to Identify Inhibitors of RecA-Intein Splicing Activity. [Related pubchem assays (depositor defined):AID2097, AID2223, AID489010, AID492950]. The format is functional.

Test [4] has as its target T2, Replicative DNA helicase DnaB (Mycobacterium tuberculosis, UniProt P9WMR3).
T2 sequence (P9WMR3 whole entry): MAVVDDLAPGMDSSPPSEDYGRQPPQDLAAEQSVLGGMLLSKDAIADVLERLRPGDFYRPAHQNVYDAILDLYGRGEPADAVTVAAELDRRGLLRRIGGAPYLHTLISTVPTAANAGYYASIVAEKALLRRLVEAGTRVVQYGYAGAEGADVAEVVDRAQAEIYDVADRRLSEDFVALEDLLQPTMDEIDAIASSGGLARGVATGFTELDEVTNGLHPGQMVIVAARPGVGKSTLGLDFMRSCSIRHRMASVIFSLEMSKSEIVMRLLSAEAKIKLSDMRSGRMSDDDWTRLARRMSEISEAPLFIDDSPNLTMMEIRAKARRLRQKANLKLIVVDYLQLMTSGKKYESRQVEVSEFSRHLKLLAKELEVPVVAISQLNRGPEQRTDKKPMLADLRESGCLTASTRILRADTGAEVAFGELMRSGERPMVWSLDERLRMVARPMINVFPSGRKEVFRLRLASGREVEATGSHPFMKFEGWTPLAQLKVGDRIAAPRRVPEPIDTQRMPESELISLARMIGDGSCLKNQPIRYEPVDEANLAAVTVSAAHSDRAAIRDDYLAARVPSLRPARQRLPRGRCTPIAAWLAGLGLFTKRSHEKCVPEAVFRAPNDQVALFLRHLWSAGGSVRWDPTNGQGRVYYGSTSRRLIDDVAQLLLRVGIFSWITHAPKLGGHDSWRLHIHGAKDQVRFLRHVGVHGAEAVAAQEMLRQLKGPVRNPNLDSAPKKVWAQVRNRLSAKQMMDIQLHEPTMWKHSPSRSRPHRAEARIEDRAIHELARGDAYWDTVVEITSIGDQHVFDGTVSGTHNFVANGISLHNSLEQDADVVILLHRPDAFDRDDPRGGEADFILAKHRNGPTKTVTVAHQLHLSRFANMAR
Briefly: DnaB intein splicing inhibitors, dose response, biochemical, cell-free fluorescence (AID 449749). It counts as functional.

The target in test [5] is G-protein coupled receptor 55 (Homo sapiens, UniProt Q9Y2T6). The test can be described thus: GPR55 antagonists, SAR follow-up, counter-screen for GPR35 antagonist project, imaging, image-based (AID 2397). The format is functional. Background: A counterscreen serves to expose hits that act by an unwanted route or on another target.
Test [6] can be described thus: cytotoxicity in HEK-293T cells, dose response, cytotoxicity control for BCR NF-kB inhibitor project, luminescence, B-cell screen hits (AID 489021).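 Note: HEK-293T cells carrying an NF-kB luciferase reporter; cells exposed to compound for about 14 hours before viability readout.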 The format is functional, cell-based.
A short description of test [7]: Vero cell cytotoxicity, dose response, cytotoxicity control for Vif-APOBEC3G degradation inhibitor project, Vero cells (AID 1117358). The format is functional. The following applies: Human immunodeficiency virus 1, Vero.
Test [8] can be described thus: inhibitors of Vif binding to APOBEC3G peptide, primary screen, biochemical, TR-FRET, GST-Vif 1-94, biotin-A3G peptide, dose response retest (AID 1117319).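 Note: TR-FRET signal of purified GST-Vif binding a biotinylated A3G peptide; inhibitors lower the FRET signal by blocking Vif and A3G binding.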 It counts as functional. For orientation: Time-resolved FRET reads energy transfer from a long-lived donor to a nearby acceptor.
The next test concerns the target Protein Tat (Human immunodeficiency virus type 1 group M subtype B (isolate HXB2)(HIV-1), UniProt P04608). The format is functional.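 Note: tat binding to TAR RNA read out by fluorescence polarization.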

Sequence of Protein Tat (P04608 whole entry): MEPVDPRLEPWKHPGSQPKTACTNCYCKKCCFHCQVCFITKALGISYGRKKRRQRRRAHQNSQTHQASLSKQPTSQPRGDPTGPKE
Sequence of G-protein coupled receptor 35 (Q9HC97 whole entry): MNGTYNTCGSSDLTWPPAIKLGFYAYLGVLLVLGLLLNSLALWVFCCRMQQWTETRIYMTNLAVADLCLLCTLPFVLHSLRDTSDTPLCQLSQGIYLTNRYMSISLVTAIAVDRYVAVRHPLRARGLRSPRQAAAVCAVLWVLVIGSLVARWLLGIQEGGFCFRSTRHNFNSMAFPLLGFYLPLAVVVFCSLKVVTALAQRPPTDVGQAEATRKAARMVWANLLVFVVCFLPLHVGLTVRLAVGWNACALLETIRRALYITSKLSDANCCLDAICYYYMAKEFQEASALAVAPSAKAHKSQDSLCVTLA
Sequence of G-protein coupled receptor 55 (Q9Y2T6 whole entry): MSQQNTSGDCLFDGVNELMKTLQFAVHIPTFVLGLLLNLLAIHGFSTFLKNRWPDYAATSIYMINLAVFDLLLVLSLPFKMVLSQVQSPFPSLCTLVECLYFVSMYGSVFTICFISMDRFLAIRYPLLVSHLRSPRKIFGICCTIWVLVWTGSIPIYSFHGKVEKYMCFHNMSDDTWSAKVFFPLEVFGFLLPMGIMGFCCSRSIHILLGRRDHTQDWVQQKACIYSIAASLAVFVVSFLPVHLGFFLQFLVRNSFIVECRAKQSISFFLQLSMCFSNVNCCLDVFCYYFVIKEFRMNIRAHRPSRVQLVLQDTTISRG

In the case of `COc1ccccc1OCCOCCOc1ccccc1Cl`, the IC50 in test [1] is > 109 µM (inactive); in test [2], > 83.3 µM (inactive).
For the compound `COc1ccc(/C=C2\SC(=S)N(CCCC(=O)Nc3ccc(O)cc3)C2=O)cc1`, the results for the half-maximal inhibitory concentration (IC50) in test [3], in test [5] and in test [6] were > 32 µM (not active), > 32 µM (inactive) and > 80 µM (inactive), respectively. Moreover, the EC50 at Protein RecA is 78.1 µM (active). Moreover, the AC50 in test [4] is > 380 µM (inactive).
For the compound `Cc1ccc(C)c(S(=O)(=O)Nc2ccccc2C(=O)Nc2ccccc2N2CCOCC2)c1`, in test [7], the CC50 was > 40 µM (active).
For `CCOc1ccccc1N1C(=O)CC(Nc2ccc(N3CCOCC3)cc2)C1=O` (stereo not given), the IC50 is > 50.6 µM (active) in [8] and 16.3 µM (inconclusive) on Protein Tat.

In general, IC50 refers to the concentration at which inhibition is half-maximal. What is called EC50 is the concentration that produces a half-maximal response. One may read the AC50 as the concentration at which the activity in the assay is half-maximal. For orientation: CC50 means the concentration at which the toxic effect on the cells reaches its halfway point.
